Like-named read-outs stand apart in the source and are kept apart here. Ends that are not written are not given here.

A word on the IC50: it is the midpoint of a concentration-inhibition curve.

Assay [1] concerns the target T1, HLA-A0301 (Homo sapiens, UniProt P04439).
T1 construct: endogenous in cells
Nature of the assay: Competition-based cellular peptide binding assay, HLA-A0301. The settings on record: Table 2; mild-acid-treated B-LCLs, 150 nM fluorescent reference peptide […], overnight 4°C, flow cytometry; mean of two independent experiments. Here is the method:
(§1) To test binding affinity of eluted and predicted peptides to HLA-I, competition-based cellular peptide binding assays were performed as described earlier. In short, B-LCLs were treated with a mild acid (1∶1 mixture of 0.263M C6H8O7*H2O and 0.126M Na2HPO4*2H2O) for 1 min to remove the naturally HLA-I bound peptides. Cells were buffered with cold IMDM containing 2% FCS immediately thereafter and resuspended at a concentration of 4×10^5 cells/ml in 2% FCS and 1.5 µg/ml human β2m (Sigma-Aldrich). Then, 4×10^4 cells/well were incubated with 150 nM of fluorescently labeled reference peptide and a serial dilution of one of the eluted or predicted peptides. The following HLA-I allele-restricted reference peptides were used: […] (for HLA-A0201), […] (for HLA-A0301), […] (for HLA-B0702) and […] (for HLA-B4002), each containing a fluorescent label bound to the cysteine residue. After overnight incubation at 4°C, cells were washed twice in PBS supplemented with 1% BSA and fixed in 0.5% paraformaldehyde. Cells were analyzed with CellQuestPro or FlowJo software (Tree Star, Ashland, OR, USA). IC50 values were defined with GraphPad Prism 4.02 (GraphPad Software Inc., La Jolla, USA) using the following formula: Y = Bmax*X/(IC50+X), in which Bmax is the maximal binding capacity of the positive control peptide, X the concentration of peptide tested and IC50 the concentration of peptide needed to reach half-maximal binding.
A general note: A flow cytometer gives signals particle by particle.

The target of assay [2] is T2, HLA-A0201 (Homo sapiens, UniProt P04439, D140Y/D185E/D98H/E176V/E277Q/G131W/G231S/I119V/I121R/I166T/I218V/L300P/L318F/N151K/N90K/P208A/P217A/Q86G/Q94H/R138H/R169H/T345S).
T2 construct: endogenous in cells
Nature of the assay: Competition-based cellular peptide binding assay, HLA-A0201. Conditions: for IC50: mild-acid-treated B-LCLs, 150 nM fluorescent reference peptide […], overnight 4°C, flow cytometry, mean of two independent experiments, read-out: HLA-A201 IC50. Here is the method:
To test binding affinity of eluted and predicted peptides to HLA-I, competition-based cellular peptide binding assays were performed as described earlier. […] Cells were buffered with cold IMDM containing 2% FCS immediately thereafter and resuspended at a concentration of 4×10^5 cells/ml in 2% FCS and 1.5 µg/ml human β2m (Sigma-Aldrich). […] The following HLA-I allele-restricted reference peptides were used: […] (for HLA-B0702) and […] (for HLA-B4002), each containing a fluorescent label bound to the cysteine residue. After overnight incubation at 4°C, cells were washed twice in PBS supplemented with 1% BSA and fixed in 0.5% paraformaldehyde. Cells were analyzed with CellQuestPro or FlowJo software (Tree Star, Ashland, OR, USA).

Assay [3] addresses T3, HLA-B0702 (Homo sapiens, UniProt P01889).
T3 construct: endogenous in cells
As to the kind of experiment: Competition-based cellular peptide binding assay, HLA-B0702. The settings on record: for IC50: mild-acid-treated B-LCLs, 150 nM fluorescent reference peptide […], overnight 4°C, flow cytometry, mean of two independent experiments. As for the experimental part: as §1

Assay [4] has as its target T4, HLA-B4002 (Homo sapiens, UniProt P01889, A65T/A93T/A95T/D138N/D201E/D98Y/E176V/E204Q/E69K/K202T/N87E/Q56L/Q94N/R180L/S48T/Y33H/Y91S). As to the kind of experiment: Competition-based cellular peptide binding assay, HLA-B4002. Conditions: Table 2; mild-acid-treated B-LCLs, 150 nM fluorescent reference peptide […], overnight 4°C, flow cytometry; mean of two independent experiments. Here is the method: as §1

In assay [5] the target is T4, HLA-B4002. The settings on record: Figure 3 legend; positive control peptide; cited from earlier work. The text has this:
(§2) (A0201 peptide), […] (A0301 peptide), SPSVDK ...

Assay [6] deals with T3, HLA-B0702. Conditions: Figure 3 legend; positive control peptide; cited from earlier work.
Text: as §2

Setting [7] is: Table 1, class by IC50 cut-off values.
Where [8] appears, read: Table 1, concentration for half maximal competition.

With RMATPLLMQA, the IC50 in assay [1] amounted to 2.45 µM; in assay [2] (Table 2), 8.08 µM; in assay [3] (Table 2), 7.75 µM; in assay [4], 2.05 µM.
With ETIDWKVFESW [Peptide 5], in assay [2] (setting [7]), the “HLA-A201 Affinity” value is reported as “– (no binding, >100 µM)”. For the same sequence, the IC50 in assay [2] (setting [8]) and in assay [3] (Table 1) was > 100 µM in each case. In addition, the “HLA-B0702 Affinity” value in assay [3] (setting [7]) was “– (no binding, >100 µM)”.
In the case of RMATPLLMQAL [RMATPLLMQAL], the IC50 in assay [1] turned out to be 4.28 µM; in assay [2] (Table 2), 4.49 µM; in assay [3] (Table 2), 1.85 µM; in assay [4] it was 0.48 µM.
Regarding LLAGQATT [Peptide 2], the IC50 in assay [2] (setting [8]) was > 100 µM; in assay [3] (Table 1), 40.9 µM.
Turning to GEFGGFGSV, the IC50 in assay [5] was 0.2 µM.
As to LPMGALPQGPM [Peptide 4], the IC50 in assay [2] (setting [8]) is > 100 µM; in assay [3] (Table 1), 0.41 µM.
As for SPSVDKARAEL, the IC50 in assay [6] is 0.7 µM.
Turning to RMATPLLMQALPM [Peptide 3], the half-maximal inhibitory concentration (IC50) in assay [1] came out at 3.35 µM; in assay [2] (setting [8]) it was 13.7 µM; in assay [3] (Table 1), 0.36 µM; in assay [4], 3.43 µM.
On to KMRMATPLL, for which the IC50 in assay [1] came to 6.43 µM; in assay [2] (Table 2), 10.9 µM; in assay [3] (Table 2), 0.47 µM; in assay [4], 0.44 µM.
As to SRGALYTGFSIL [Peptide 1], the IC50 in assay [2] (setting [8]) worked out at 10.9 µM; in assay [3] (Table 1), 1.39 µM.
